In patent JP2005330229A, “4−トリフルオロメトキシフェニル(オキシ)エチルアミン誘導体及び抗菌剤” (Ube Industries Ltd, priority 2004, dated 2005):

System: black mold Aspergillus niger (クロカビ)
Test: Antimicrobial test, black mold (PDA plate, colony diameter)
Format: cell-based
Settings: PDA medium, final concentration 500 mg/L, 25℃, 4 days; for inhibition at 500 µg/mL: 96 h, read-out: inhibition rate

| Compound | inhibition rate | inhibition at 500 µg/mL [%] |
| --- | --- | --- |
| 2−エトキシ−N−(2−(4−トリフルオロメトキシフェノキシ)エチル)ニコチン酸アミド [化合物番号12] | B (B:70〜89%阻害) |  |
| CS(=O)(=O)c1ncccc1C(=O)NCCOc1ccc(OC(F)(F)F)cc1 [化合物番号4, 2−メチルスルホニル−N−(2−(4−トリフルオロメトキシフェノキシ)エチル)ニコチン酸アミド] |  | 70 to 89 |
| O=C(NCCc1ccc(OC(F)(F)F)cc1)c1ccncc1 [化合物番号33, N−(2−(4−トリフルオロメトキシフェニル)エチル)イソニコチン酸アミド] |  | 70 to 89 |
| N−(2−(4−トリフルオロメトキシフェノキシ)エチル)−9−トリフルオロメチル−ジピリド[2,3−b:3’,2’−f]1,4−チアゼピン−6(5H)−オン [化合物番号41] | C (C:50〜69%阻害) |  |
| C[S+]([O-])c1ncccc1C(=O)NCCOc1ccc(OC(F)(F)F)cc1 (centres unmarked) [化合物番号5, 2−メチルスルフィニル−N−(2−(4−トリフルオロメトキシフェノキシ)エチル)ニコチン酸アミド] |  | 50 to 69 |
